According to patent publication US20090209536A1, “AMINOQUINAZOLINE CANNABINOID RECEPTOR MODULATORS FOR TREATMENT OF DISEASE” (KALYPSYS, INC., priority 2007, published 2009):
Where two headings read alike, the source gives them in different places.

Tests used:
[1] = molecular target: T1, human cannabinoid receptor type 2 (Homo sapiens, UniProt P34972); assay: Human CB2 Radioligand Binding Assay; settings: membranes from stably transfected CHO CB2 cells
T1 construct: expressed in transfected cells; membrane preparation
In short: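 Filtration competition binding on membranes from CHO cells stably expressing human CB2, with [3H]CP-55,940 at its lot-specific Kd, in 50 mM Tris-HCl pH 7.4, EGTA, MgCl2, 5 mg/ml BSA, 1% DMSO; 90 min at 30° C. Compounds at 10 uM single point or dose-response; bound radioactivity by scintillation, 100 nM CP-55,940 as 100% efficacy.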

[2] = molecular target: T2, human cannabinoid receptor type 1 (Homo sapiens, UniProt P21554); assay: Human CB1 Radioligand Binding Assay (basis of selectivity, CB2 vs. CB1); settings: CB1: HEK 293 EBNA cells expressing human CB1; CB2: CHO CB2 membranes
T2 construct: purchased Perkin Elmer RBHCB1M; host or cells: HEK 293 EBNA cells
Procedure: 2. Human CB1 Radioligand Binding Assay
The incubation buffer was composed of 50 mM Tris-HCl pH 7.4, 2.5 mM EDTA, 5 mM MgCl2, 5.0 mg/ml fatty acid free BSA and the wash buffer was composed of 50 mM Tris-HCl pH 7.4, 2.5 mM EDTA, 5 mM MgCl2, 0.5 mg/ml fatty acid free BSA.

[3] = competition with [3H] CP-55,940, read-out: CB2 Ligand Binding Asssay EC50

T2 sequence (P21554 whole entry): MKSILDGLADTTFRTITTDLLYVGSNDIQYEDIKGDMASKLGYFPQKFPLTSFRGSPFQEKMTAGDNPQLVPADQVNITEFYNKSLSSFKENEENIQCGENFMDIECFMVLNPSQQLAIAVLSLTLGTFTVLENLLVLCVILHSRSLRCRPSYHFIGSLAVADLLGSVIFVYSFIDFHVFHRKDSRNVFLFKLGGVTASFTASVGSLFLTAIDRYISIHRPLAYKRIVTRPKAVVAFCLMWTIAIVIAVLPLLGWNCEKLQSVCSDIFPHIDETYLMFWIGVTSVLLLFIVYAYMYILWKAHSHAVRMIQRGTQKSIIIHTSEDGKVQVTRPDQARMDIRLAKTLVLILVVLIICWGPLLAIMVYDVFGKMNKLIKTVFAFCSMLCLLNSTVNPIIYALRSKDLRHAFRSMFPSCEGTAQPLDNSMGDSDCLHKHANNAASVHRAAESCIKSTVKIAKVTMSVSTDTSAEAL
T1 sequence (P34972 whole entry): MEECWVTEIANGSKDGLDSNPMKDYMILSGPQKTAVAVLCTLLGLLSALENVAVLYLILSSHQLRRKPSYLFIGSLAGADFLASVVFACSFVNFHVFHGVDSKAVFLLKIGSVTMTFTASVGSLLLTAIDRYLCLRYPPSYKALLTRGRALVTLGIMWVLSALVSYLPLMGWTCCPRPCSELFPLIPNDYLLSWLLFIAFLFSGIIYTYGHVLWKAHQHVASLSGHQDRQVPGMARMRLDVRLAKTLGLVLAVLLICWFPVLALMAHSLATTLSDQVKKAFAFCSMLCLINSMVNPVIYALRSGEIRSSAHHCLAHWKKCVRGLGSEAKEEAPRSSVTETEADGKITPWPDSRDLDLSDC

Compound	EC50 [1, 3] [nM]	Selectivity, CB2 vs. CB1 [2]	EC50 ([1]; CB2 Ligand Binding Asssay EC50, competition with [3H] CP-55,940) [nM]
CCCOC(=O)N1CCN(c2nc(-c3ccccc3Cl)nc3cccc(Cl)c23)CC1 [Example 231, Propyl 4-(5-chloro-2-(2-chlorophenyl)quinazolin-4-yl)piperazine-1-carboxylate]	> 1000	− (− indicates ≦ 10−fold)	–
CC(=O)N1CCN(c2nc(-c3ccccc3Cl)nc3cc(Cl)ccc23)CC1 [Example 233, 1-(4-(7-Chloro-2-(2-chlorophenyl)quinazolin-4-yl)piperazin-1-yl)ethanone]	< 1000	− (− indicates ≦ 10−fold)	–
CCOC(=O)N1CCN(c2nc(-c3ccccc3Cl)nc3cc(Cl)ccc23)CC1 [Example 234, Ethyl 4-(7-chloro-2-(2-chlorophenyl)quinazolin-4-yl)piperazine-1-carboxylate]	> 1000	− (− indicates ≦ 10−fold)	–
Clc1ccc2c(N3CCCC3)nc(-c3ccccc3Cl)nc2c1 [Example 235, 7-Chloro-2-(2-chlorophenyl)-4-(pyrrolidin-1-yl)quinazoline]	–	− (− indicates ≦ 10−fold)	> 1000
CC(=O)N1CCN(c2nc(-c3ccccc3F)nc3cccc(Cl)c23)CC1 [Example 237, 1-(4-(5-Chloro-2-(2-fluorophenyl)quinazolin-4-yl)piperazin-1-yl)ethanone]	< 1000	+ (+ indicates > 10−fold)	–
CCOC(=O)N1CCN(c2nc(-c3ccccc3F)nc3cccc(Cl)c23)CC1 [Example 238, Ethyl 4-(5-chloro-2-(2-fluorophenyl)quinazolin-4-yl)piperazine-1-carboxylate]	< 1000	+ (+ indicates > 10−fold)	–
Fc1ccccc1-c1nc(N2CCCC2)c2c(Cl)cccc2n1 [Example 239, 5-Chloro-2-(2-fluorophenyl)-4-(pyrrolidin-1-yl)quinazoline]	< 1000	+ (+ indicates > 10−fold)	–
CC(=O)N1CCN(c2nc(-c3ccccc3Cl)nc3cccc(C(F)(F)F)c23)CC1 [Example 240, 1-(4-(2-(2-Chlorophenyl)-5-(trifluoromethyl)quinazolin-4-yl)piperazin-1-yl)ethanone]	< 1000	+ (+ indicates > 10−fold)	–
CCOC(=O)N1CCN(c2nc(-c3ccccc3Cl)nc3cccc(C(F)(F)F)c23)CC1 [Example 241, Ethyl 4-(2-(2-chlorophenyl)-5-(trifluoromethyl)quinazolin-4-yl)piperazine-1-carboxylate]	< 1000	+ (+ indicates > 10−fold)	–
FC(F)(F)c1cccc2nc(-c3ccccc3Cl)nc(N3CCCC3)c12 [Example 242, 2-(2-Chlorophenyl)-4-(pyrrolidin-1-yl)-5-(trifluoromethyl)quinazoline]	< 1000	+ (+ indicates > 10−fold)	–
COc1cccc2nc(-c3ccccc3Cl)nc(N3CCN(C(C)=O)CC3)c12 [Example 243, 1-(4-(2-(2-Chlorophenyl)-5-methoxyquinazolin-4-yl)piperazin-1-yl)ethanone]	< 1000	+ (+ indicates > 10−fold)	–
CCOC(=O)N1CCN(c2nc(-c3ccccc3Cl)nc3cccc(OC)c23)CC1 [Example 244, Ethyl 4-(2-(2-chlorophenyl)-5-methoxyquinazolin-4-yl)piperazine-1-carboxylate]	< 1000	+ (+ indicates > 10−fold)	–
CC(=O)N1CCN(c2nc(-c3ccccc3Cl)nc3cccc(F)c23)CC1 [Example 246, 1-(4-(2-(2-Chlorophenyl)-5-fluoroquinazolin-4-yl)piperazin-1-yl)ethanone]	< 1000	+ (+ indicates > 10−fold)	–
CCOC(=O)N1CCN(c2nc(-c3ccccc3Cl)nc3cccc(F)c23)CC1 [Example 247, Ethyl 4-(2-(2-chlorophenyl)-5-fluoroquinazolin-4-yl)piperazine-1-carboxylate]	< 1000	+ (+ indicates > 10−fold)	–
COc1ccc2nc(-c3ccc(C(C)(C)C)cc3)nc(N3CCN(C(C)=O)CC3)c2c1 [Example 249, 1-(4-(2-(4-tert-Butylphenyl)-6-methoxyquinazolin-4-yl)piperazin-1-yl)ethanone]	< 1000	+ (+ indicates > 10−fold)	–
CCOC(=O)N1CCN(c2nc(-c3ccc(C(C)(C)C)cc3)nc3ccc(OC)cc23)CC1 [Example 250, Ethyl 4-(2-(4-tert-butylphenyl)-6-methoxyquinazolin-4-yl)piperazine-1-carboxylate]	< 1000	+ (+ indicates > 10−fold)	–
COc1ccc2nc(-c3ccc(C(C)(C)C)cc3)nc(N3CCCC3)c2c1 [Example 251, 2-(4-tert-Butylphenyl)-6-methoxy-4-(pyrrolidin-1-yl)quinazoline]	< 1000	+ (+ indicates > 10−fold)	–
CCOC(=O)N1CCN(c2nc(-c3ccc(C(C)(C)C)cc3)nc3ccc(Cl)cc23)CC1 [Example 252, Ethyl 4-(2-(4-tert-butylphenyl)-6-chloroquinazolin-4-yl)piperazine-1-carboxylate]	> 1000	− (− indicates ≦ 10−fold)	–
CC(=O)N1CCN(c2nc(-c3ccc(Cl)cc3)nc3ccc(Cl)cc23)CC1 [Example 253, 1-(4-(6-Chloro-2-(4-chlorophenyl)quinazolin-4-yl)piperazin-1-yl)ethanone]	> 1000	− (− indicates ≦ 10−fold)	–
CC(=O)N1CCN(c2nc(-c3ccccc3Cl)nc3cccc(C)c23)CC1 [Example 254, 1-(4-(2-(2-Chlorophenyl)-5-methylquinazolin-4-yl)piperazin-1-yl)ethanone]	< 1000	− (− indicates ≦ 10−fold)	–
CCOC(=O)N1CCN(c2nc(-c3ccccc3Cl)nc3cccc(C)c23)CC1 [Example 255, Ethyl 4-(2-(2-chlorophenyl)-5-methylquinazolin-4-yl)piperazine-1-carboxylate]	< 1000	+ (+ indicates > 10−fold)	–
COC(=O)N1CCN(c2nc(-c3ccccc3Cl)nc3cccc(Cl)c23)CC1 [Example 261, Methyl 4-(5-chloro-2-(2-chlorophenyl)quinazolin-4-yl)piperazine-1-carboxylate]	< 1000	+ (+ indicates > 10−fold)	–

More lines, main results first:

EC50 [1, 3] [nM]	Selectivity, CB2 vs. CB1 [2]	Compound	EC50 ([1]; CB2 Ligand Binding Asssay EC50, competition with [3H] CP-55,940) [nM]
> 1000	− (− indicates ≦ 10−fold)	COC(CN(C)c1nc(-c2ccccc2Cl)nc2ccccc12)OC [Example 229, 2-(2-Chlorophenyl)-N-(2,2-dimethoxyethyl)-N-methylquinazolin-4-amine]	–
< 1000	+ (+ indicates > 10−fold)	CCCC(=O)N1CCN(c2nc(-c3ccccc3Cl)nc3cccc(Cl)c23)CC1 [Example 232, 1-(4-(5-Chloro-2-(2-chlorophenyl)quinazolin-4-yl)piperazin-1-yl)butan-1-one]	–
> 1000	− (− indicates ≦ 10−fold)	Clc1ccccc1-c1nc(N2CCNCC2)c2c(Cl)cccc2n1 [Example 236, 5-Chloro-2-(2-chlorophenyl)-4-(piperazin-1-yl)quinazoline]	–
< 1000	+ (+ indicates > 10−fold)	COc1cccc2nc(-c3ccccc3Cl)nc(N3CCCC3)c12 [Example 245, 2-(2-Chlorophenyl)-5-methoxy-4-(pyrrolidin-1-yl)quinazoline]	–
< 1000	+ (+ indicates > 10−fold)	Fc1cccc2nc(-c3ccccc3Cl)nc(N3CCCC3)c12 [Example 248, 2-(2-Chlorophenyl)-5-fluoro-4-(pyrrolidin-1-yl)quinazoline]	–
< 1000	+ (+ indicates > 10−fold)	Cc1cccc2nc(-c3ccccc3Cl)nc(N3CCCC3)c12 [Example 256, 2-(2-Chlorophenyl)-5-methyl-4-(pyrrolidin-1-yl)quinazoline]	–
> 1000	− (− indicates ≦ 10−fold)	Cn1ccnc1N1CCN(c2nc(-c3ccccc3Cl)nc3ccccc23)CC1 [Example 257, 2-(2-Chlorophenyl)-4-(4-(1-methyl-1H-imidazol-2-yl)piperazin-1-yl)quinazoline]	–
> 1000	− (− indicates ≦ 10−fold)	Clc1ccccc1-c1nc(NCCCn2ccnc2)c2ccccc2n1 [Example 258, N-(3-(1H-Imidazol-1-yl)propyl)-2-(2-chlorophenyl)quinazolin-4-amine]	–
> 1000	− (− indicates ≦ 10−fold)	CN(CCCn1ccnc1)c1nc(-c2ccccc2Cl)nc2ccccc12 [Example 259, N-(3-(1H-Imidazol-1-yl)propyl)-2-(2-chlorophenyl)-N-methylquinazolin-4-amine]	–
< 1000	+ (+ indicates > 10−fold)	CCC(=O)N1CCN(c2nc(-c3ccccc3Cl)nc3cccc(Cl)c23)CC1 [Example 260, 1-(4-(5-Chloro-2-(2-chlorophenyl)quinazolin-4-yl)piperazin-1-yl)propan-1-one]	–
> 1000	− (− indicates ≦ 10−fold)	O=C(c1ncc[nH]1)N1CCN(c2nc(-c3ccccc3Cl)nc3ccccc23)CC1 [Example 262, (4-(2-(2-Chlorophenyl)quinazolin-4-yl)piperazin-1-yl)(1H-imidazol-2-yl)methanone]	–
